The text below walks through data of the RepoRT retention time repository.

This data set can be described thus: Agilent ZORBAX 300 SB-C18, 150 × 1 mm, 3.5 µm; A: water + 0.01% heptafluorobutyric acid; B: acetonitrile + 0.01% heptafluorobutyric acid; gradient (min/%B) 0/0 100/90. Conditions: stereoisomer not certain.
As for `Cc1cc(C(=O)N2CCCCC2)c2c(=O)n(CC(=O)Nc3ccccc3)c(=O)n(-c3ccccc3)c2n1`, the LC retention time turned out to be 13.5 min.
For `CCC(C)n1cc(C=C2NC(=O)NC2=O)c2ccccc21` (stereo not drawn), the LC retention time came out at 12.7 min.
Then `O=CN1CCN(C=O)CC1`, with 3.45 min; and `O=C1CCCN1CP(=O)(O)CCc1ccccc1`, with 7.26 min.
With `CC1(C)CC(NCC(=O)OC2CCCCC2)CC(C)(C)N1`, the LC retention time was found to be 8.55 min.
In the case of `NC(=O)c1ccccc1NC(=O)Cn1cnc2ccccc2c1=O`, the LC retention time is 9.05 min.
Then `Cc1ccccc1C=NNC(N)=S`, with 10.7 min; and `CN(C)C(CN)c1ccco1` (stereo not drawn), with 7.02 min; and `Cc1ccc(-n2c(O)c(C=Nc3ccc(O)cc3C)c(=O)[nH]c2=O)cc1`, with 10.9 min.
With `c1cc(N2CCCC2)ccn1`, the LC retention time is 7.65 min.
For `C#CC(C)(C)NC(C)=O`, the LC retention time was determined as 6.79 min.
Next, `O=C(c1n[nH]c(=O)c2ccccc12)N1CCN(C(c2ccccc2)c2ccccc2)CC1`: 11.4 min.
Then `O=c1cc[nH]cc1`, with 4.89 min.
As to `COC(=O)CCCCCN`, the LC retention time was found to be 7.25 min.
As to `CC1CCCCN1C(=O)c1cncc(C(=O)N2CCCCC2C)c1` (stereo not drawn), the LC retention time came to 11.3 min.
Next, `Cc1cccc(Nc2cc(C)nc3ccccc23)c1`: 10.4 min; `Cc1cccc(NC(=O)C(Cc2c[nH]c3ccccc23)NC(=O)C(c2ccccc2)c2ccccc2)c1C` (stereo not drawn): 16.7 min.
As for `O=C(C=Cc1ccco1)c1ccccc1`, the LC retention time was found to be 14.5 min.
In the case of `Cc1ccsc1C=CC(=O)c1ccc2ccccc2c1`, the LC retention time was determined as 18.5 min.
On to `CC(=O)c1cccc(N2C(=O)C3CCCCC3C2=O)c1` (stereo not drawn), for which the LC retention time came to 12 min.
With `O=C1CC(N2CCN(C(c3ccccc3)c3ccccc3)CC2)C(=O)N1c1ccccc1` (stereo not drawn), the LC retention time worked out at 11.2 min.
On to `O=C(O)C1CCCN(CCc2ccccc2)C1` (stereo not drawn), for which the LC retention time turned out to be 8.36 min.
Next, `CCNC(=O)CC(=O)NCC`: 5.95 min.
As for `Cc1ccc(NC(=O)COc2ccc(-c3ccccc3)cc2)cc1`, the LC retention time is 17.1 min.
Then `c1cncc(-c2ncc[nH]2)c1`, with 6.65 min; and `O=C(O)c1n[nH]c(=O)[nH]1`, with 1.25 min.
Consider `Nc1ccc(C=C(C(=O)O)c2ccccc2)cc1`, for which the LC retention time is 9.96 min.
`CC(C)C1CN(Cc2ccco2)CCN1` (stereo not drawn): the LC retention time was 7.94 min.
With `CCN(CC)CCCN`, the LC retention time was 6.92 min.
Next, `CN(C)C=CC=O`: 5.98 min; `OCCNC1CCCCC1`: 7.24 min.
Next, `O=C(c1ccc(-c2ccccc2)cc1)N1CCN(c2ccccc2)CC1`: 16.5 min.
Then `COC(=O)C(N)c1ccccc1` (stereo not drawn), with 7.62 min; and `CCCCCCCCCCNC(=S)Nc1ccccc1`, with 19.6 min; and `OCc1cccnc1-c1ncccc1CO`, with 6.38 min.
As to `NC(CO)(CO)CO`, the LC retention time turned out to be 2.86 min.
Then `NC(CCC(=O)OCc1ccccc1)C(=O)O` (stereo not drawn), with 8.38 min; and `COc1ccc(C2NNc3nn(-c4ccccc4OC)nc32)cc1` (stereo not drawn), with 13.6 min; and `CN(c1ccccc1)c1nc(-n2ccnc2)nc(-n2ccnc2)n1`, with 11.3 min.
Then `COc1cccc2c1NC(C)(C)CC2C` (stereo not drawn), with 12.3 min; and `C#CC(C)(N)CC` (stereo not drawn), with 6.91 min; and `c1ccc(N(c2ccccc2)c2ccccc2)cc1`, with 20.2 min.
For `c1cncc(-c2nn[nH]n2)c1`, the LC retention time came out at 5.35 min.
Then `CCC(NC(C)C)C(O)c1ccc(O)c2[nH]c(=O)ccc12` (stereo not drawn), with 7.81 min; and `O=C(O)CCCc1ccncc1`, with 6.69 min.
As to `C=CCNCC=C`, the LC retention time is 7.07 min.
Then `Nc1ccc(OCc2ccccc2)cc1`, with 9.84 min; and `O=C(C=Cc1ccco1)C1CC1`, with 12.1 min; and `CN(C)CCCNC(=O)Nc1cccc2ccccc12`, with 8.85 min.
Next, `CC(C)N1CCNCC1`: 6.94 min; `Cc1[nH]c(C)c(C(=O)c2ccccc2)c1C`: 12.5 min.
As to `COc1ccc2c(=O)cc(-c3ccccc3)oc2c1OC`, the LC retention time was 13.7 min.
Then `O=C(O)CCc1nn2c3ccccc3n(CC(=O)O)c2nc1=O`, with 7.51 min; and `COc1ccc(N(C)C(=O)c2cccc(C(=O)N(C)c3ccc(OC)cc3)c2)cc1`, with 12.6 min; and `CC[N+](CC)(CC)Cc1ccccc1`, with 8.32 min.
Next, `CNc1ccncc1`: 6.54 min; `CN(C)CCN(Cc1ccccc1)c1ccccn1`: 10.1 min; `Nc1nc(=Nc2ccccc2)n2c(n1)sc1ccccc12`: 10.4 min.
Then `COc1ccc(-c2oc3ccccc3c(=O)c2OC)cc1OC`, with 13.4 min.
With `NC(=O)C1CCCOC1` (stereo not drawn), the LC retention time was found to be 5.49 min.
Take `CCCCCCCN1C(=O)c2ccccc2C1(O)Cc1ccccc1` (stereo not drawn): the LC retention time was 16.8 min.
Next, `Nc1cc[n+](Cc2ccccc2)cc1`: 8.46 min.
Next, `CN1CCOC(c2ccccc2)c2ccccc2C1` (stereo not drawn): 10.1 min.
With `CN1CCCCC1`, the LC retention time was found to be 6.61 min.
As to `Nc1nc(=O)n2c(n1)oc1ccccc12`, the LC retention time was 7.8 min.
On to `NC(=O)CNc1ccc(C(N)=O)cc1`, for which the LC retention time was found to be 5.59 min.
Regarding `O=C(C=Cc1cccc(O)c1)c1ccccc1O`, the LC retention time turned out to be 12.2 min.
For the compound `NCCCP(=O)(O)O`, the LC retention time is 1.3 min.
Next, `CN(C)c1ccncc1N`: 7.03 min.
Then `COc1cccc(C2CC(=O)Nc3cc4c(cc32)OCO4)c1OC` (stereo not drawn), with 12 min.
Then `CCOC(=O)c1ccc(NC(=O)CC(C)(C)C)cc1`, with 14.8 min.
Consider `CC1(C)CC(=O)C2=C(C1)NCN(Cc1ccccc1)C2`, for which the LC retention time amounted to 8.44 min.
As to `Cc1cccc(CN)c1`, the LC retention time was 7.91 min.
For the compound `CCn1c2ccccc2c2ccccc21`, the LC retention time is 17.5 min.
For the compound `OC1CCNCC1`, the LC retention time turned out to be 2.8 min.
In the case of `O=C(O)c1cc(=O)n(-c2ccc(S(=O)(=O)O)cc2)[nH]1`, the LC retention time was determined as 2.18 min.
Then `Cc1ccc(C(=O)NCCn2cccc2)cc1`, with 11.9 min.
`Cc1cc(C)nc(NC(N)=NCCC(C)C)n1`: the LC retention time came out at 10.3 min.
Next, `CCN(CC)CC(=O)Nc1c(C)cc(C)cc1C`: 9.28 min.
Then `CN1C2CC(OC(=O)C(CO)c3ccccc3)CC1C1OC12` (stereo not drawn), with 8.47 min; and `CNC(C)(C)Cc1ccccc1`, with 8.99 min; and `CC(C)C(N)C(C)(C)O` (stereo not drawn), with 7.04 min.
Next, `CN(C)CCO`: 3.24 min.
On to `Cc1ccc(N)c(N)c1`, for which the LC retention time came to 7.42 min.
As to `O=C(CN1CCc2ccccc2C1)NC1CCCC1`, the LC retention time came to 8.99 min.
With `Cc1ccc2c(c1)C1CN(C)CCC1N2C(=S)NC1CCCCC1` (stereo not drawn), the LC retention time came to 12.2 min.
`COC(=O)C(c1ccccc1)C1CCCCN1` (stereo not drawn): the LC retention time was 9.49 min.
Next, `NC1CC(CO)C(O)C1O` (stereo not drawn): 2.49 min; `Cc1ccc2[nH]cc(C=O)c2c1`: 9.98 min; `S=c1[nH]c2ccccc2c2c1CCC2`: 12.1 min.
Next, `Nc1ccc(-c2cccs2)cc1`: 10.5 min; `Cn1cnnc1-c1ccncc1`: 6.08 min; `COc1ccc(C2CC(=O)Nc3cc4c(cc32)OCO4)cc1` (stereo not drawn): 11.9 min.
Then `S=C(NCc1ccc2[nH]c3c(c2c1)CCCC3)Nc1cccc2ccccc12`, with 16 min; and `O=C(NCc1ccncc1)c1ccc(-c2ccccc2)cc1`, with 10.2 min; and `CCOC(=O)c1ccc(Nc2c(N)c(=O)oc3ccccc23)cc1`, with 14 min.
Consider `Cc1cccc(C(=O)NNC(=O)c2ccccc2C(=O)c2ccccc2)c1`, for which the LC retention time was 13.3 min.
Then `CCCCCC[N+](C)(C)Cc1ccccc1`, with 10.7 min.
Take `COc1ccc(-n2c(O)c(Cc3ccc(OC)c(OC)c3)c(=O)[nH]c2=O)cc1`: the LC retention time turned out to be 10.7 min.
Then `NCc1ccccc1CN`, with 7.03 min; and `O=c1[nH]c(N=NCc2c[nH]c3ccccc23)nnc1-c1ccccc1`, with 11.8 min; and `CCCNCCN`, with 7 min.
For the compound `CCCCCCC(C)NCCO` (stereo not drawn), the LC retention time was 9.31 min.
Next, `Cc1cc(C(=O)O)c(C)n1CCc1c[nH]c2ccccc12`: 12.5 min; `CCN(CC)CC(=O)Nc1c(C)cccc1C`: 9.19 min; `c1cc(-c2noc(-c3cnccn3)n2)ccn1`: 8.8 min.
In the case of `Cn1ccc2cc(C=O)ccc21`, the LC retention time came out at 11.3 min.
With `CC(C)CNC(=O)C(=O)NC1CC(C)(C)NC(C)(C)C1`, the LC retention time is 8.6 min.
Next, `CN(C)C(=O)c1ccc(N)cc1`: 6.87 min; `Nc1cccc(Nc2ccccc2)c1`: 9.53 min; `CN(C)C1CCCCC1`: 7.57 min.
Then `O=C(O)c1ccncn1`, with 2 min; and `CCOC(=O)CN1C(=O)N(C)Cc2ccccc21`, with 11.4 min.
